Reference: patent publication US5126134A, “Pharmaceutically active combination” (Ciba-Geigy Corporation, priority 1988, dated 1992)

Tests used:
[1] = tested on: coagulation (clotting time, aPTT) of citrated plasma; assay: In vitro clot lysis / coagulation in citrated plasma with t-PA; type: biochemical, Human; details: for concentration leading to the same prolongation of aPTT (equipotent concentration): human citrated plasma
Procedure: Human blood is directly withdrawn into 3.8% sodium citrate solution (ratio blood/citrate solution 9:1). The mixture is centrifuged at 1,000 rpm for 10 min to yield citrated plasma.
A mixture consisting of 150 μl citrated plasma 125 μl 0.9% sodium chloride solution 100 μl desulfato hirudin HV1 or MCI-9038 (see below) in 0.9% sodium chloride is prepared directly in 1 ml cuvettes equilibrated at 37° C. The mixture is incubated for 15 min at 37° C. Then, 25 μl of a 1 μg/ml t-PA stock solution (American Diagnostica, New York) and 300 μl 0.0025M calcium chloride solution are added to start coagulation.
The change in the optical density (coagulation) is continuously measured at 608 nm in a Uvikon 810 P spectrophotometer equipped with a kinetic program.
The time (in minutes) from addition of the CaCl2 solution to a change in absorbance greater than 0.025 is defined as the coagulation time. The clot lysis time (in minutes) is defined as the time from the beginning of the clotting to the time at which the absorbance decreased to 10% of the maximum absorbance.
The thrombin inhibitor MCI-9038 [(2R,4R)-4-methyl-1-[N^2 -[(3-methyl-1,2,3,4-tetrahydro-8-quinolyl)-sulfonyl]-L-arginyl]-2-piperidinecarboxylic acid] is chemically synthesized as described in S. Okamoto et al., Biochem. Biophys. Res. Commun. 101, 440-446 (1981). It is used at the following end concentrations: 0.07, 0.14, 0.28, 0.56 and 1.1 μM. The desulfato hirudin used has been prepared by recombinant DNA technology using transformed yeast according to the procedure described in European Patent Application No. 225,633. It is used at the following end concentrations: 0.8, 1.6, 3.2, 8 and 16 nM. The concentrations chosen of MCI-9038 and desulfato hirudin are equipotent concentrations in terms of prolongation of clotting time (coagulation), e.g. 1.2 μM MCl-9038 and 16 nM desulfato hirudin lead to the same prolongation of aPTT.

[2] = tested on: preformed non-radioactive thrombi in the jugular vein; assay: Rabbit jugular vein thrombosis model: inhibition of thrombus accretion during thrombolysis with t-PA; type: in vivo, New Zealand white rabbits
Procedure: The experiments are performed with New Zealand white rabbits (weighing 2.3-3.5 kg) anaesthesized by intravenous (marginal ear vein) injection of 30 mg/kg sodium pentobarbital. Through a paramedical incision of the neck, the jugular veins and the right carotid artery are exposed. The right carotid artery is cannulated with a 1.5 mm diameter polyethylene cannula for blood sampling. The two jugular veins are isolated, cleared over a distance of 2 cm, small side branches are ligated. Each jugular segment is emptied of blood and blood flow is temporarily occluded both proximally and distally by two angiostaths, 1.5 cm apart. A 10 cm length 3.0 TiCron braided polyester suture, presoaked in a collagen solution, is introduced lengthwise in the lumen of the isolated jugular vein for a distance of 4 cm to avoid the embolization of the thrombus to be produced. […] The effects of standard heparin and recombinant desulfato hirudin in preventing thrombus extension during thrombolysis with t-PA are assessed as their ability to inhibit the accretion of ^125 I-fibrinogen onto autologous non-radioactive thrombi preformed in the jugular vein of rabbits. […] The ratio of the radioactivity of the thrombus to the circulating fibrinogen radioactivity is used to quantify thrombus size, which is then expressed as μg or ^125 I-fibrinogen accreted onto the thrombus.

[3] = tested on: activated partial thromboplastin time; assay: aPTT prolongation in control experiments (rabbit model); type: in vivo, New Zealand white rabbits; details: heparin 0.75 mg/kg, hirudin 1 mg/kg
Procedure: Intravenous infusions are carried out by using a constant rate infusion pump. t-PA derived from melanoma cell cultures is obtained from BioResponse, USA. A total dose of 0.5 mg t-PA is infused through the marginal ear vein over a period of 3 hours. Along with t-PA either saline, standard heparin (KabiVitrum, Sweden, 140 USP/mg; 0.75 mg/kg) or hirudin (1 mg/kg) are infused. Doses of heparin and hirudin are used which give in control experiments the same prolongation in aPTT (activated partial thromboplastin time), e.g. times two.

CC1CNc2c(cccc2S(=O)(=O)N[C@@H](CCCNC(=N)N)C(=O)N2CC[C@@H](C)C[C@@H]2C(=O)O)C1 (stereo partly drawn) [MCI-9038, (2R,4R)-4-methyl-1-[N^2-[(3-methyl-1,2,3,4-tetrahydro-8-quinolyl)-sulfonyl]-L-arginyl]-2-piperidinecarboxylic acid]
concentration leading to the same prolongation of aPTT (equipotent concentration) ([1]; equipotent with 16 nM desulfato hirudin): 1.2 µM
concentration needed to achieve the same effect as a given concentration of desulfato hirudin ([1]; relative to desulfato hirudin, in vitro clot lysis): twenty-fold

desulfato hirudin HV1
concentration leading to the same prolongation of aPTT (equipotent concentration) ([1]; equipotent with 1.2 μM MCI-9038): 0.016 µM
effect on thrombus accretion during t-PA thrombolysis ([2]; FIG. 1, infused along with t-PA, heparin 0.75 mg/kg, desulfato hirudin 1 mg/kg): clear reduction in thrombus accretion
effect on thrombus accretion with increasing concentrations ([2]; FIG. 2, t-PA with various concentrations of desulfato hirudin): this effect can even be potentiated
prolongation in aPTT [3]: times two
